Source: ChEMBL document CHEMBL3507680, “University of Dundee, Gates Library screen for HepG2 cell viability”

Experiment: Human HepG2 cell viability assay in 384 well format
Format: toxicity, cell-based
Design: dose 125 nL, time 70.5 hour; concentration not given beside the values
Conditions: HepG2 cells, read-out: Inhibition

| SMILES | cytotoxicity at 70.5 h [%] |
| --- | --- |
| Cc1cc(F)ccc1-n1cc(O)c(C(N)=O)n1 | -19 |
| CCN1C[C@H]2CCN(C(=O)NC)CC[C@H]2S1(=O)=O | 49 |
| CCOC[C@]12COC[C@H]1CN(Cc1ccc3c(c1)OCO3)C2 | -6.35 |
| CC(C)[C@H]1CN(Cc2c[nH]nn2)C[C@@H]1NC(=O)C1CCOCC1 | -0.972 |
| O=C(NCc1nnc2n1CCCCC2)N(Cc1ccccn1)C1CC1 | 0.752 |
| O=C(NCc1cccs1)c1nc2c(o1)CN(C(=O)c1cccnc1)C2 | 7.5 |
| CCc1nc(Nc2ccc(C(=O)NC)cc2)c2c(n1)c(C)nn2CC | -16.9 |
| Cc1cc(CN2CCC3(CC2)COC(COCC2CC2)C3)no1 (configuration not stated) | -9.77 |
| Cc1cc(C(=O)NCc2ccc(N3CCCC(C(N)=O)C3)cc2)on1 (configuration not stated) | -3.31 |
| O=C(c1cnc(NCC2CCCO2)c(Cl)c1)N1CCOCC1 (configuration not stated) | -9.69 |
| O=C(C1CCC1)N1CCN(C(=O)c2cnccn2)[C@H]2CS(=O)(=O)C[C@H]21 | -11.7 |
| CN(C)CCOCC1CN(C(=O)c2ccnnc2)Cc2ccnn2C1 (configuration not stated) | -14 |
| COC(=O)C1(NCC(=O)Nc2cc(C)ccc2OC)CCCCC1 | 2.15 |
| N#Cc1ccc(CN2CCCCC2Cn2cncn2)c(F)c1 (configuration not stated) | 4.33 |
| O=C(CN1CCN(c2ncnc3c2CCNCC3)CC1)N1CCCCC1 | -5.29 |
| Cc1noc(OCC(=O)N2CCCCC2C)n1 (configuration not stated) | -3.19 |
| NC(=O)C1CCN(c2ccc(C(=O)N3CCc4ccccc43)cn2)C1 (configuration not stated) | -4.05 |
| Cc1ncccc1NC(=O)[C@@H]1CC[C@@H]2[C@@H](CCN2Cc2cnn(C)c2)O1 | 13.5 |
| O=C(Cn1ccc2ccc(F)cc21)NCc1ccc(C(=O)O)cc1 | 18 |
| CC(C)NC(=O)N1CCCCC1c1nnc2n1CCNC2 (configuration not stated) | 20.4 |
| Cc1ccc(OCC(=O)N2CCN[C@H]3CS(=O)(=O)C[C@H]32)cn1 | -16.7 |
| COc1ncccc1CNC(=O)c1ccc(C)[nH]c1=O | 12.6 |
| CCC1CN(C(=O)c2csc3nc(-c4ccc(Cl)cc4)cn23)CCN1 (configuration not stated) | -12.3 |

| SMILES | cytotoxicity at 70.5 h [%] |
| --- | --- |
| COCCn1cc(CC(=O)Nc2cc(C)n(C)n2)c2ccccc21 | -5.22 |
| Cc1nc(-c2ccncc2)ncc1C(C)NC(=O)Cn1ccccc1=O (configuration not stated) | 9.51 |
| CCn1ccnc1CN1CCN(CCOc2ccc(C#N)cc2)CC1 | -4.7 |
| CC1CCN(C(=O)C(C)N2CCN(c3nccs3)CC2)CC1 (configuration not stated) | -7 |
| CCc1noc(C(C)SCCS(C)(=O)=O)n1 (configuration not stated) | -7.13 |
| CCn1cnnc1CNC(=O)NCC(C(C)C)N1CCC(C)CC1 (configuration not stated) | 10.3 |
| FC(F)(F)CCc1ccnc(N2CCN(Cc3ccccn3)CC2)n1 | 6.16 |
| CSc1ccc(NCc2csc(C)n2)cc1F | -0.888 |
| Cc1cc(NC(=O)NC(C)CO)ccc1OCC(F)(F)F (configuration not stated) | -2.25 |
| CCn1c(C(=O)N2CCN(CC(C)O)CC2)cc2ccccc21 (configuration not stated) | 21.6 |
| O=C(C1CCOCC1)N1CCO[C@H]2[C@H](OCc3ccncc3)CC[C@@H]21 | -9.92 |
| COCC1c2c(cnn2CC2CC2)CCN1Cc1cccs1 (configuration not stated) | -2.83 |
| O=C(c1ccccn1)N1CCC2(CC1)CN(c1cncnc1)C(=O)CO2 | -12.2 |
| Cn1ccnc1C(=O)NCCS(=O)(=O)c1ccc(C(C)(C)C)cc1 | -3.28 |
| Cc1cccc(C(=O)N2CCCN(CCCSCC#N)CC2)c1 | -10.7 |
| Cc1ccc(CN2CCc3ncc(CNC(=O)C4CCC4)n3CC2)o1 | -2.7 |
| CNc1cc(C2CCCN(C(=O)c3ccc(=O)[nH]n3)C2)ccn1 (configuration not stated) | -0.0309 |
| FC(F)Oc1ccc(CNCc2cc(Br)c3c(c2)OCO3)cc1 | -6.89 |
| CC(=O)N1CCC[C@@H](NCc2cccc(F)c2)[C@@H]1c1ccc(C)s1 | -6.03 |
| CC(C)CNC(=O)CNC(=O)c1nc(Cc2c(Cl)cccc2Cl)no1 | -9.72 |
| CCOC(CC)C(=O)NCCC(=O)N1CCN(c2ccccn2)CC1 (configuration not stated) | -14.2 |
| CS(=O)(=O)N[C@@H]1CCO[C@]2(CCN(C(=O)c3cscn3)C2)C1 | -7.64 |
| CCc1nc(C)cn1C(=O)Nc1ccc(F)cc1 | 5.48 |

| SMILES | cytotoxicity at 70.5 h [%] |
| --- | --- |
| CC(=O)N1CCCN(C(=O)NCCOc2ccc3c(c2)OCO3)CC1 | -8.5 |
| O=C(Cc1ccsc1)N1CCC[C@@H]1Cn1c(=O)oc2ccccc21 | -5.78 |
| Cc1noc(C)c1CNCC1CCCN1c1cccnn1 (configuration not stated) | 22.6 |
| CC(C)c1cnc(CNc2c(F)cccc2-n2cccn2)o1 | -4.44 |
| COc1ccc(OC)c(NC(=O)N2CCCC2c2ccco2)c1 (configuration not stated) | -12.9 |
| O=C(c1cnc2n1CCCC2)N1CCCC1 | -2.75 |
| CCNc1ncc(CN2C[C@H](C3CC3)[C@@H](N)C2)cn1 | -1.95 |
| CN1CCN(C(=O)[C@H]2C[C@H]3[C@H](CCN3Cc3cccs3)O2)CC1 | -2.03 |
| Cc1cccc(O[C@H]2COCCN(C3CCC3)C2)n1 | -6.06 |
| CO[C@@H]1CO[C@@]2(CCCN(C(=O)C3CC=CC3)C2)C1 | -1.96 |
| CNC(=O)C1(c2cnccn2)CCCN1C(=O)c1ccccc1 (configuration not stated) | 17.8 |
| CC(C)N1CCN2C(=O)N(C3CCCCC3)C[C@H]2C1 | 0.287 |
| CN(Cc1nccn1CC(F)(F)F)C(=O)c1cccc(C#N)c1 | -7.89 |
| Cc1nc(CO[C@@H]2CN(Cc3ccccn3)[C@@H]3COC[C@@H]32)cs1 | -7.36 |
| CCN(CC1CCOC1)C(=O)c1ccccc1N1CCOCC1 (configuration not stated) | 18.7 |
| COc1nn(C)cc1C(=O)NCC1(O)CCc2ccccc2C1 (configuration not stated) | -5.25 |
| COCCC(=O)N1CCC(C(=O)c2cc(C)cnc2N)CC1 | -8.64 |
| Cn1cc(N2CCC(NC(=O)c3ccccc3Cl)C2=O)cn1 (configuration not stated) | 1.26 |
| O=C(CCCc1ccc(F)cc1)N1C[C@@H](CN2CCOCC2)[C@@H](CO)C1 | -2.56 |
| COc1ccccc1CCNC(=O)CNC1CCc2nc(C)nn2C1 (configuration not stated) | -0.271 |
| Cc1cnn(CC2CCCCN2C(=O)c2ccc3nnc(C)n3c2)c1 (configuration not stated) | -10.9 |
| O=C(COC1CCCC1)N1CCCN(c2ncccn2)CC1 | -2.52 |
| COc1cc(OC)cc(C(=O)NCc2nn(C)c3c2COCC3)c1 | 0.999 |

| SMILES | cytotoxicity at 70.5 h [%] |
| --- | --- |
| Cc1cc(=O)[nH]c(-n2nc(C3CC3)cc2N)n1 | 29.2 |
| Cc1ccc(S(=O)(=O)c2ncccc2CN2CCN(CCO)CC2)cc1 | -30.6 |
| Cn1cc(CN2CCO[C@H]3C(Cn4cccn4)CC[C@@H]32)cn1 (some centres not stated) | 2.67 |
| COc1ncccc1NC(=O)N1CCCC1c1cc(C)no1 (configuration not stated) | -16.3 |
| CC1=N[C@@]2(CC[C@@H]3CN(CC4CC4)C[C@@H]32)C(=O)N1CC1CC1 | -13.6 |
| Cc1nc(N2CCOCC2)nc2c1CCN(c1nccs1)CC2 | -5.03 |
| CCNC(=O)[C@@H]1C[C@H](NC(=O)Cn2ccnc2)CN1Cc1ccsc1 | 14.3 |
| Cc1cccc(O[C@H]2COCCN(Cc3sc(C)nc3C)C2)n1 | 10.9 |
| Cc1nn(C)c(C)c1C1CCCN1CCCC#N (configuration not stated) | -4.71 |
| CC(=O)NCCCNC(=O)Nc1ccccc1-n1nc(C)cc1C | 0.874 |
| O=C(CC1CCc2ccccc21)N1CCC(C(=O)O)(n2ccnc2)CC1 (configuration not stated) | 22.5 |
| Cc1ccc(NC(=O)N(C)Cc2cnn(C)c2)cc1OCC(F)F | 26.4 |
| Cn1c(Cn2ccnc2)nnc1C1CCN(C(=O)c2ccoc2)CC1 | -7.81 |
| Cc1ncnc2c1CCN(Cc1nccs1)CC2 | -5.22 |
| Cc1ccc(Cn2c(=O)[nH]c3cccnc3c2=O)cc1 | -8.02 |
| CCn1cc(CN2CCCN(C(=O)CCc3nccs3)CC2)cn1 | -12.4 |
| CNc1oc(-c2cc(S(=O)(=O)N3CCCC3)c(C)o2)nc1C#N | -25 |
| Cc1ccc(F)cc1-n1c(COC(C)C)n[nH]c1=O | -5.58 |
| CCc1cc(C(C)Nc2nc(-c3cccnc3)nc3c2CNC3)on1 (configuration not stated) | -5.83 |
| Cc1cc(C)n(CCNCc2cc(-c3ccc(Cl)cc3)c[nH]c2=O)n1 | -3.88 |
| CN(Cc1ccc2c(c1)OCO2)C(=O)c1ccc(=O)n(C)c1 | -1.05 |
| CCc1nnc(N2C[C@@H](NC(C)=O)[C@H](c3ccc(C)o3)C2)s1 | 2.74 |
| O=C(NCc1ccco1)c1[nH]nc2c1CS(=O)(=O)CC2 | 22.5 |

| SMILES | cytotoxicity at 70.5 h [%] |
| --- | --- |
| Cc1cccc(CN2C[C@H]3OC(=O)N(CCCN4CCOCC4)[C@H]3C2)n1 | -10.1 |
| NC(=O)c1csc(N2CCCC(c3n[nH]c(=O)n3-c3ccccc3)C2)n1 (configuration not stated) | -6.33 |
| Cc1cccc(C)c1OCCCN1CCN(CC2CCCO2)CC1 (configuration not stated) | 18.9 |
| O=C(NCCc1csc(N2CCCC2)n1)N(C1CCCC1)C1CC1 | -2.69 |
| Cc1ccc(S(=O)(=O)N2CCn3nc(C)nc3C2)c(Cl)c1 | -2.97 |
| Cc1ccc(-c2n[nH]cc2CNCC2CCN(CC(F)(F)F)C2)o1 (configuration not stated) | -1.74 |
| CN(C)c1nc2n(c(=O)n1)CCN2C(=O)Nc1cccc(Cl)c1 | -9.23 |
| O=C(NCCc1ccccn1)[C@@]12CCO[C@@H]1CCN(c1ncccn1)C2 | -2.15 |
| CSCC(=O)N1CCC(c2nccn2Cc2cscn2)CC1 | -2.59 |
| O=C(NCCc1cccs1)C1(N2CCCCC2)Cc2ccccc2C1 | -7.46 |
| O=C(CCC1CC1)N1C[C@@H](CN2CCCC2)[C@@H](CO)C1 | -13.2 |
| CSCC(=O)N1CCN(CC(O)C(C)(C)C)CC1 (configuration not stated) | -10.6 |
| CN(Cc1nnc(C2CC2)o1)Cc1ccccc1N1CCOCC1 | -4.09 |
| Cc1ccccc1CN(C)C(=O)CN1CCCC(Cn2cncn2)C1 (configuration not stated) | -6.64 |
| COc1cc(N2CCC(c3nccn3Cc3ccccn3)CC2)ncn1 | -4.99 |
| CCc1nnc(CN2CCc3[nH]c(-c4ccc(OC)cc4)nc3C2)o1 | -9.04 |
| CC(C)OCCCN(Cc1ccncc1)Cc1cccc(F)c1 | 1.37 |
| Cc1cc(C)n(C2CCN(c3ncnc4c3CCNCC4)C2)n1 (configuration not stated) | -9.03 |
| COc1cc2[nH]c(=O)c(CN3CCC[C@@H]3C(N)=O)cc2c(OC)c1OC | 23.4 |
| COCCN1CCC(CNc2nc3ccccc3o2)CC1 | 1.47 |
